Measurements as given in PubChem BioAssay AID192 (DTP/NCI, 2004).
“And” between values parts separate entries of the source, which are not always exact repeats. Equal values may be shown once. Toxic doses and inconclusive results are not listed. How the source made its calls: active means survival T/C of 150% or more; inactive means T/C below 125% in these data.

Tested on: BDF1 mice, B16 melanoma ip, median survival T/C
Test: NCI In Vivo Anticancer Drug Screen. Data for tumor model B16 Melanoma (intraperitoneal) in B6D2F1 (BDF1) mice
Conditions: endpoint: median survival time, higher = longer survival
How it was run: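 Read-out: survival or tumor size, given as treated/control ratio. Controls received vehicle only; animals bore transplantable tumors.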

[1] = dose: 0.5 mg/kg/injection, schedule: Q01DX009 (ip), vehicle: saline with Tween-80
[2] = dose: 1.0 mg/kg/injection, schedule: Q01DX009 (ip), vehicle: saline with Tween-80
[3] = dose: 12.5 mg/kg/injection, schedule: Q01DX009 (ip), vehicle: saline with Tween-80
[4] = dose: 25.0 mg/kg/injection, schedule: Q01DX009 (ip), vehicle: saline with Tween-80
[5] = dose: 50.0 mg/kg/injection, schedule: Q01DX009 (ip), vehicle: saline with Tween-80
[6] = dose: 12.5 mg/kg/injection, schedule: Q01DX009 (ip), vehicle: Klucel (hydroxypropylcellulose) (HPC)
[7] = dose: 25.0 mg/kg/injection, schedule: Q01DX009 (ip), vehicle: Klucel (hydroxypropylcellulose) (HPC)
[8] = dose: 50.0 mg/kg/injection, schedule: Q01DX009 (ip), vehicle: Klucel (hydroxypropylcellulose) (HPC)
[9] = dose: 6.25 mg/kg/injection, schedule: Q01DX009 (ip), vehicle: saline with Tween-80
[10] = dose: 1.5 mg/kg/injection, schedule: Q01DX009 (ip), vehicle: Klucel (hydroxypropylcellulose) (HPC)

Measured: T/C

Cc1nc(N)nc(N)c1-c1ccc(Cl)c(Cl)c1
inactive: dose: 0.25 mg/kg/injection, schedule: Q01DX009 (ip), vehicle: saline with Tween-80 104 % of control | [1] 102 % of control | dose: 0.62 mg/kg/injection, schedule: Q01DX009 (ip), vehicle: saline 102 % of control | dose: 0.75 mg/kg/injection, schedule: Q01DX009 (ip), vehicle: saline with Tween-80 115 % of control | [2] 100 % of control | dose: 1.0 mg/kg/injection, schedule: Q02DX009 (ip), vehicle: Klucel (hydroxypropylcellulose) (HPC) 98 % of control | dose: 1.0 mg/kg/injection, schedule: Q02DX009 (ip), vehicle: saline with Tween-80 113 % of control | dose: 1.25 mg/kg/injection, schedule: Q01DX009 (ip), vehicle: saline 107 % of control | dose: 1.5 mg/kg/injection, schedule: Q04DX003 (ip), vehicle: saline with Tween-80 90 % of control | dose: 2.0 mg/kg/injection, schedule: Q01DX009 (ip), vehicle: saline with Tween-80 120 % of control | dose: 2.0 mg/kg/injection, schedule: Q02DX009 (ip), vehicle: Klucel (hydroxypropylcellulose) (HPC) 100 % of control | dose: 2.0 mg/kg/injection, schedule: Q02DX009 (ip), vehicle: saline with Tween-80 119 % of control | dose: 3.0 mg/kg/injection, schedule: Q01DX009 (ip), vehicle: saline with Tween-80 112 % of control | dose: 3.0 mg/kg/injection, schedule: Q04DX003 (ip), vehicle: saline with Tween-80 90 % of control | dose: 4.0 mg/kg/injection, schedule: Q02DX009 (ip), vehicle: Klucel (hydroxypropylcellulose) (HPC) 100 % of control | dose: 4.0 mg/kg/injection, schedule: Q04DX003 (ip), vehicle: saline with Tween-80 96 % of control | dose: 6.0 mg/kg/injection, schedule: Q04DX003 (ip), vehicle: saline with Tween-80 102 % of control | dose: 8.0 mg/kg/injection, schedule: Q02DX009 (ip), vehicle: Klucel (hydroxypropylcellulose) (HPC) 121 % of control | dose: 8.0 mg/kg/injection, schedule: Q04DX003 (ip), vehicle: saline with Tween-80 97 % of control | dose: 10.0 mg/kg/injection, schedule: Q04DX003 (ip), vehicle: saline with Tween-80 93 % of control

Nc1cccc(NC=O)c1
inactive: [3] 102 % of control | [4] 97 % of control | [5] 97 % of control

O=C(O)c1ccccc1C(=O)OC1CC2C=CC1C21CC1 (stereo not drawn)
inactive: [6] 96 % of control | [7] 96 % of control | [8] 93 % of control

O=C(CCl)N1c2ccccc2Sc2ccc(Cl)cc21
inactive: dose: 6.25 mg/kg/injection, schedule: Q01DX009 (ip), vehicle: other 107 % of control | dose: 12.5 mg/kg/injection, schedule: Q01DX009 (ip), vehicle: other 100 % of control | dose: 25.0 mg/kg/injection, schedule: Q01DX009 (ip), vehicle: other 100 % of control | dose: 50.0 mg/kg/injection, schedule: Q01DX009 (ip), vehicle: other 94 % of control | dose: 100.0 mg/kg/injection, schedule: Q01DX009 (ip), vehicle: other 87 % of control

COc1cc(C2C3=C(CC(C)(C)CC3=O)N(CC(=O)O)C3=C2C(=O)CC(C)(C)C3)ccc1O
inactive: dose: 50.0 mg/kg/injection, schedule: Q01DX009 (ip), vehicle: water 103 % of control | dose: 100.0 mg/kg/injection, schedule: Q01DX009 (ip), vehicle: water 101 % of control | dose: 200.0 mg/kg/injection, schedule: Q01DX009 (ip), vehicle: water 115 % of control

CCOC(=O)/C=C/c1ccc2c(c1)OCO2
inactive: dose: 66.0 mg/kg/injection, schedule: Q04DX003 (ip), vehicle: saline with Tween-80 97 % of control | dose: 100.0 mg/kg/injection, schedule: Q01DX009 (ip), vehicle: saline with Tween-80 104 % of control | dose: 100.0 mg/kg/injection, schedule: Q04DX003 (ip), vehicle: saline with Tween-80 97 % of control | dose: 150.0 mg/kg/injection, schedule: Q04DX003 (ip), vehicle: saline with Tween-80 100 % of control | dose: 200.0 mg/kg/injection, schedule: Q01DX009 (ip), vehicle: saline with Tween-80 106 % of control | dose: 400.0 mg/kg/injection, schedule: Q01DX009 (ip), vehicle: saline with Tween-80 102 % of control

NC(c1ccccc1)C(N)c1ccccc1 (stereo not drawn)
inactive: dose: 25.0 mg/kg/injection, schedule: Q04DX003 (ip), vehicle: other 97 % of control | dose: 50.0 mg/kg/injection, schedule: Q04DX003 (ip), vehicle: other 97 % of control | dose: 100.0 mg/kg/injection, schedule: Q04DX003 (ip), vehicle: other 86 % of control

O=C(Nc1cc(Cl)ccc1Cl)c1ccc(Cl)cc1Cl
inactive: [9] 97 % of control | dose: 6.25 mg/kg/injection, schedule: Q04DX003 (ip), vehicle: saline with Tween-80 92 % of control | [3] 93 % of control | dose: 12.5 mg/kg/injection, schedule: Q04DX003 (ip), vehicle: saline with Tween-80 96 % of control | [4] 100 % of control | dose: 25.0 mg/kg/injection, schedule: Q04DX003 (ip), vehicle: saline with Tween-80 88 % of control

Nc1nncs1
inactive: dose: 8.0 mg/kg/injection, schedule: Q01DX009 (ip), vehicle: saline 104 % of control | dose: 16.0 mg/kg/injection, schedule: Q01DX009 (ip), vehicle: other 111 % of control | dose: 16.0 mg/kg/injection, schedule: Q01DX009 (ip), vehicle: saline 99 % of control | dose: 32.0 mg/kg/injection, schedule: Q01DX009 (ip), vehicle: other 106 % of control | dose: 32.0 mg/kg/injection, schedule: Q01DX009 (ip), vehicle: saline 105 % of control | dose: 64.0 mg/kg/injection, schedule: Q01DX009 (ip), vehicle: other 104 % of control

O=C(NNc1ccccc1)c1ccccc1
inactive: dose: 6.25 mg/kg/injection, schedule: Q01DX009 (ip), vehicle: Klucel (hydroxypropylcellulose) (HPC) 97 % of control | [6] 97 % of control | [7] 93 % of control | [8] 91 % of control

Cc1n[nH]c2ccc([N+](=O)[O-])cc2c1=O
inactive: [9] 97 % of control | [3] 90 % of control | [4] 95 % of control

C=COCCCCCC(C)C
inactive: [7] 97 % of control | [8] 102 % of control | dose: 100.0 mg/kg/injection, schedule: Q01DX009 (ip), vehicle: Klucel (hydroxypropylcellulose) (HPC) 86 % of control and 91 % of control

CCC(CC)OCCN1CCN(CCCN2c3ccccc3Sc3ccc(C(F)(F)F)cc32)CC1
inactive: [1] 109 % of control | [2] 103 % of control

CCN(CC)CCC1CCNCC1
inactive: dose: 6.25 mg/kg/injection, schedule: Q01DX009 (ip), vehicle: saline 112 % of control | dose: 12.5 mg/kg/injection, schedule: Q01DX009 (ip), vehicle: saline 112 % of control | dose: 25.0 mg/kg/injection, schedule: Q01DX009 (ip), vehicle: saline 106 % of control

CC1(C)OC(CI)C(COS(C)(=O)=O)O1 (stereo not drawn)
inactive: [3] 97 % of control | [4] 97 % of control | [5] 96 % of control and 100 % of control

CN(C)c1ccc(C(N)=O)cn1
inactive: [10] 124 % of control

C/C=C(\C)C(=O)OC1C(C)=C2C(C1OC(=O)CCCC)C(C)(OC(C)=O)CC(OC(=O)CCCC)C1(O)C2OC(=O)C1(C)O (stereo not drawn)
inactive: dose: 0.37 mg/kg/injection, schedule: Q01DX009 (ip), vehicle: Klucel (hydroxypropylcellulose) (HPC) 90 % of control | dose: 0.75 mg/kg/injection, schedule: Q01DX009 (ip), vehicle: Klucel (hydroxypropylcellulose) (HPC) 101 % of control | [10] 106 % of control | dose: 3.0 mg/kg/injection, schedule: Q01DX009 (ip), vehicle: Klucel (hydroxypropylcellulose) (HPC) 89 % of control
